Data on seven compounds can be found in patent US8222242B2, “Nitric oxide releasing compounds” (The Regents of the University of California, priority 2008, dated 2012).

The subject of data set [1] is CS-54 rat vascular smooth muscle cells. Particulars: added to CS-54 cells.
Procedure: CS-54 rat vascular smooth muscle cells were treated with the indicated concentrations of NO-Cbi for 1 hour (A), or 10 μM NO-Cbi for the indicated times (B and C). […] (C) Cell extracts were clarified by centrifugation, and nitrite and nitrate in the extracts were measured by an enhanced Griess reagent method. In A and B, “Con” refers to control, which was cells treated with water. As indicated, the effects of 30 μM cobinamide (Cbi) and 100 μM 8-CPT-cGMP (cGMP) are shown for comparison. In A and B, similar results were obtained in two other experiments.
Nitrite and nitrate were measured in CS-54 cell extracts and fly extracts using a kit from Active Motif based on an enhanced Griess reagent, as described previously (Broderick K E et al. (2006) FASEB J. 20:1865-73).
Data set [2] relates to Malpighian tubules isolated from D. melanogaster. As to the kind of experiment: Malpighian tubule fluid secretion. Also noted: species or system Drosophila melanogaster. The following applies: 1 mM cobinamide or Cbi(II), 5 mM ascorbic acid, half-strength Schneider's medium. The method, then:
Malpighian tubules are the osmoregulatory organs of D. melanogaster, corresponding to vertebrate kidneys. Tubular fluid secretion is stimulated by NO and cGMP, and fluid secretion rates were measured as described previously (Broderick K E et al. (2005) J. Biol. Chem. 280:8678-85). Briefly, the Malpighian tubule pair of a fly was resected and suspended in mineral oil. […]
Malpighian tubules are an excellent model for studying the effects of a drug on an intact organ system (Broderick K E et al. (2003) Am. J. Physiol. Cell Physiol. 285:C1207-18). […] Deta-NONOate may not be affected as much by cysteine in the medium, because it has a slower NO release rate and the intact drug can be transported intracellularly before much NO is released.

The next data set deals with mice. The class given is in vivo, mouse. Particulars: for effect on blood pressure (controls) / effect on heart rate (controls): intraperitoneally, 8 mM Cbi(II) shown. As for the experimental part:
Mice were anesthetized with 1.5% isoflurane gas, and after achieving a stable blood pressure and pulse (about 10 minutes), they were injected intraperitoneally with 100 μl of […] 8 mM Cbi(II) (open circles, solid line), 8 mM NO-Cbi (filled circles, dashed line), or 8 mM nitroglycerin (squares, dotted lines) (panels a and b). Control refers to anesthetized mice who received 100 μl water (triangles, solid line). In panel C, 100 μl of 6 mM NO-Cbi was injected at 0, 32, and 64 minutes as indicated by the arrows. Systolic and diastolic blood pressures, and pulse rate, were measured at the indicated times on the tail artery using a non-invasive tail cuff. The percent change in mean arterial pressure (A and C), and pulse rate (B and C) are shown. For panels A and B, data are the mean±SD of results from five mice for NO-Cbi studied on separate days, and four mice for the other conditions. […] Data in panel C are the mean±SD of results from three mice studied on different days.
Pulse, and systolic and diastolic blood pressures, were measured non-invasively in the tail artery of mice by restraining mice on a warming platform maintained at ˜38° C. The base of the tail was placed in a computer-controlled pneumatic cuff, and the distal tail was placed in a sensor assembly consisting of a light emitting diode and a photodiode detector. Baseline measurements were made with the mice awake in a dark chamber. The mice were then anesthetized with 3% isoflurane in an induction chamber, and returned to the platform where they received 1.5% isoflurane with 2 liter per minute of oxygen via a nose cone; the isoflurane caused a small, but stable, drop in blood pressure. Drugs in a volume of 100 ul were injected intraperitoneally into the mice, and pulse and blood pressure were measured every 5-15 minute, taking five readings at each time point.
To determine the effect of NO release from NO-Cbi in an intact mammal, blood pressure and pulse of mice injected intraperitoneally with NO-Cbi were measured.

The subject of data set [3] is vasodilator-stimulated phosphoprotein (VASP) phosphorylated on Ser239 in CS-54 rat vascular smooth muscle cells. As to the kind of experiment: VASP phosphorylation in CS-54 cells (immunoblot). The class given is cell-based. Particulars: added to CS-54 cells; 30 μM cobinamide shown. A general note: A western blot detects proteins with antibodies after separation by electrophoresis.
Procedure: CS-54 rat vascular smooth muscle cells were treated with the indicated concentrations of NO-Cbi for 1 hour (A), or 10 μM NO-Cbi for the indicated times (B and C). […] In A and B, “Con” refers to control, which was cells treated with water. As indicated, the effects of 30 μM cobinamide (Cbi) and 100 μM 8-CPT-cGMP (cGMP) are shown for comparison. In A and B, similar results were obtained in two other experiments.
Briefly, cells treated with an NO-releasing agent were extracted rapidly in a sodium dodecyl sulfate (SDS) containing sample buffer, and the cell extracts were subjected to SDS-polyacrylamide gel electrophoresis. Phospho-VASP was assessed by immunoblotting using an antibody specific for VASP phosphorylated on Ser259 (Smolenski A et al. (1998) J. Biol. Chem. 273:20029-35).
To determine if NO released from NO-Cbi can have a physiologic effect in cultured cells, vasodilator-stimulated phosphoprotein (VASP) phosphorylation was assessed in CS-54 cells.

For data set [4] the following is noted: cited from earlier work.
The test system of another data set is isolated mouse hearts. In words: Coronary flow in isolated perfused mouse hearts (Langendorff). The method, then: Hearts and aortas were removed from NIH Swiss mice anesthetized with sodium nembutal, and coronary flow was measured in the hearts using a Langendorff preparation (FIG. 5a) and relaxation of aortic rings was measured after inducing constriction of the rings with prostaglandin F2α (FIG. 5b). The hearts and aortic rings were treated with a range of concentrations of NO-Cbi (filled circles), nitroglycerin (open circles, dotted line, FIG. 5a), and sodium nitroprusside (open circles, FIG. 5b). Coronary flow was measured on the same hearts for both NO-Cbi and nitroglycerin after an appropriate wash-out period between drugs, and aortic ring relaxation was measured on two rings from the same aorta for NO-Cbi and sodium nitroprusside. The data are the mean of two independent experiments performed on two separate hearts in each experiment (FIG. 5a), and the mean±SEM of two independent experiments performed on three separate aortic rings in each experiment (FIG. 5b).
Coronary flow was measured in isolated perfused mouse hearts in a Langendorff system, and was 10.8±0.5 ml/min/g wet weight (n=7 hearts) under basal conditions. […] The latter value is similar to maximal coronary flow of 24.6±1.8 ml/min/g wet weight obtained with 62 μM adenosine. For nitroglycerin to increase coronary flow to that of NO-Cbi, the nitroglycerin concentration had to be increased to 770 μM, or about 100-fold greater than the NO-Cbi concentration (FIG. 5a).

The test system of a further data set is D. melanogaster. In words: Viability of injected D. melanogaster. Particulars: 1 μl injected; 1 mM (ascorbic acid 5 mM); observed 48 h. As for the experimental part:
(A) Tubular secretion rates of Malpighian tubules isolated from D. melanogaster were measured, using half-strength Schneider's medium. Basal tubular secretion was measured at 0, 10, and 20 minutes; at 20 minutes (depicted by the arrow) 1 mM cobinamide (Cbi, open circles), 1 mM NO-Cbi (filled circles), 0.5 mM Deta-NONOate (diamonds), or 100 μM 8-CPT-cGMP (inverted triangles) were added. Results are the mean±S.D. of three independent experiments performed on Malpighian tubule pairs from 10 flies. […] (B). Flies were injected with 1 μl of 1 mM cobinamide (Cbi, open circles), 1 mM NO-Cbi (filled circles), 0.5 mM Deta-NONOate (diamonds), or 1 mM spermine NONOate (squares). […] The data are plotted as a Kaplan-Meier survival curve, and are the mean±SD of three experiments, with 10 flies per condition per experiment. […] (C). Flies were injected with 1 μl of water (control, open bar), 1 mM cobinamide (Cbi, grey bar), or 1 mM NO-Cbi (black bars). Flies were killed and extracts were prepared at 3 hours for the water- and cobinamide-injected flies, and at the indicated times for the NO-Cbi-injected flies. Nitrite and nitrate in the extracts were measured using an enhanced Griess reagent.
The fluid volume of a fly is […], and thus, the injected agent was diluted about 10-fold. […]

For a further data set, the system named is rabbits. In words: Rabbits with phenylephrine-induced hypertension. The data set is classed as in vivo, rabbit. Particulars: phenylephrine 5 to 20 μg/kg/min continuous intravenous infusion. The method, then: Phenylephrine was given by continuous intravenous infusion to an anesthetized rabbit at increasing rates from 5 to 20 μg/kg/min; the rabbit remained on the highest phenylephrine infusion rate until the end of the experiment (darker arrows with “A”-shaped arrowheads indicate start times of each increasing dose). At 49 minutes, an infusion of NO-Cbi was started at a rate of 3 μg/kg/min (2.9 nmol/kg/min), with the infusion rate doubled at 58 minutes (lighter arrows with triangular-shaped arrowheads indicate start times of infusions). Systolic and diastolic blood pressure recordings from an intra-arterial catheter are shown. Changes in total hemoglobin, oxyhemoglobin, and deoxyhemoglobin concentrations were measured by continuous wave near-infrared spectroscopy over the left thigh muscle. Phenylephrine caused a progressive decrease in total hemoglobin and oxyhemoglobin concentrations, which reversed within seconds of starting the NO-Cbi infusion.
Decreased tissue oxygenation as occurred in the experiments shown in FIGS. 7 and 8 would clearly be an undesirable effect of treating hypertensive patients with NO-Cbi. However, lowering blood pressure of a hypertensive patient is very different from lowering blood pressure of a normotensive subject, and the experiments described in Example 15 rabbits with normal or low (due to anesthesia) blood pressure. To simulate a hypertensive state, the blood pressure of rabbits was raised using a continuous intravenous infusion of phenylephrine, a peripheral vasoconstrictor (FIG. 9). As the rabbit's blood pressure increased above normal, tissue perfusion and oxygenation decreased, as evidenced by a decrease in total hemoglobin and oxyhemoglobin concentrations in muscle.
Thus, in an animal with drug-induced hypertension, NO-Cbi improved tissue perfusion and oxygenation as it lowered blood pressure.

For `C/C1=C2/[N-][C@H]([C@H](CC(N)=O)[C@@]2(C)CCC(=O)NC[C@@H](C)O)[C@]2(C)N=C(/C(C)=C3N=C(/C=C4N=C1[C@@H](CCC(N)=O)C\4(C)C)[C@@H](CCC(N)=O)[C@]\3(C)CC(N)=O)[C@@H](CCC(N)=O)[C@]2(C)CC(N)=O.[Co]` [Cbi(II), reference compound], the “effect on nitrite/nitrate levels (controls)” value in data set [1] is listed as “Neither cobinamide, Cbi(II), or ascorbate had any effect”. Besides, the “effect on tubular secretion (controls)” value in data set [2] is recorded as “Neither cobinamide nor Cbi(II) significantly affected tubular secretion”. For the same compound, in the data set with mice, the “effect on blood pressure (controls)” value was “no significant effect” and the “effect on heart rate (controls)” value was “no significant effect”. The “effect on VASP phosphorylation (controls)” value in data set [3] was “Neither cobinamide, Cbi(II), or ascorbate had any effect”.
As for `NCCN(CCN)/[N+]([O-])=N/O` [Deta-NONOate], in data set [4], the half-life – broadly, the time in which the quantity being followed falls by half – was around 50 h.
Compound `Nc1ncnc2c1ncn2[C@@H]1O[C@H](CO)[C@@H](O)[C@H]1O` [adenosine] showed a maximal coronary flow in the data set on isolated mouse hearts (62 μM) of 24.6±1.8 ml/min/g wet weight.
For `O=C1O[C@H]([C@@H](O)CO)C(O)=C1O` [ascorbate, ascorbic acid, reference compound], in data set [1], the “effect on nitrite/nitrate levels (controls)” value is “Neither cobinamide, Cbi(II), or ascorbate had any effect”. In the data set with mice, the “effect on blood pressure (controls)” value was “no significant effect” and the “effect on heart rate (controls)” value is given as “no significant effect”. Also, the “effect on VASP phosphorylation (controls)” value in data set [3] is “Neither cobinamide, Cbi(II), or ascorbate had any effect”.
Turning to `C/C1=C2/[N-][C@H]([C@H](CC(N)=O)[C@@]2(C)CCC(=O)NC[C@@H](C)O)[C@]2(C)N=C(/C(C)=C3N=C(/C=C4N=C1[C@@H](CCC(N)=O)C\4(C)C)[C@@H](CCC(N)=O)[C@]\3(C)CC(N)=O)[C@@H](CCC(N)=O)[C@]2(C)CC(N)=O.[Co+3]` [cobinamide, reference compound], in data set [1], the “effect on nitrite/nitrate levels (controls)” value is given as “Neither cobinamide, Cbi(II), or ascorbate had any effect”. Also, the “effect on tubular secretion (controls)” value in data set [2] was “Neither cobinamide nor Cbi(II) significantly affected tubular secretion”. In addition, in the data set on D. melanogaster, the “fly killing / toxicity to flies” value is reported as “not toxic to flies”. Further, in the data set with mice, the “effect on blood pressure (controls)” value is reported as “no significant effect” and the “effect on heart rate (controls)” value was “no significant effect”. For the same compound, the “effect on VASP phosphorylation (controls)” value in data set [3] is listed as “Neither cobinamide, Cbi(II), or ascorbate had any effect”.
For `O=[N+]([O-])OCC(CO[N+](=O)[O-])O[N+](=O)[O-]` [nitroglycerin], in the data set on isolated mouse hearts, the “concentration relative to the NO-Cbi concentration for equal coronary flow” value was “about 100 fold”. Also, in the data set on isolated mouse hearts (12.0 μM infused), the coronary flow is listed as 15.3±1.0 ml/min/g wet weight and the “increase of coronary flow” value is listed as 34%. Besides, in the data set on isolated mouse hearts (versus 7 μM NO-Cbi), the “concentration needed to increase coronary flow to that of NO-Cbi” value came out at 770 µM. Moreover, in the data set on mice (0.8 μmol (100 μl of 8 mM) intraperitoneally, anesthetized mice), the “systolic and diastolic blood pressure” value is “late decrease in blood pressure”.
With `CNC[C@H](O)c1cccc(O)c1` [phenylephrine, reference compound], in the data set with rabbits, the “systolic and diastolic blood pressure” value is “increased the systolic and diastolic blood pressure”; the “total hemoglobin and oxyhemoglobin in muscle” value was “decreased total hemoglobin and oxyhemoglobin in the muscle”.
